Source: PMC11233931, “Remodeling tumor‐associated macrophage for anti‐cancer effects by rational design of irreversible inhibition of mitogen‐activated protein kinase‐activated protein kinase 2” (MedComm, 2024)

Key:
Assay in all cases: Eurofins kinase selectivity profile against 380 other human recombinant kinases (Table S2)
Type in all cases: biochemical
[1] = target: T1, 380 human recombinant protein kinases (Homo sapiens, UniProt O43293); details: ZIPK(h), read-out: Inhibition rate (%)
T1 construct: purchased Eurofins (Celle Lévescault)
T1 sequence (O43293 whole entry): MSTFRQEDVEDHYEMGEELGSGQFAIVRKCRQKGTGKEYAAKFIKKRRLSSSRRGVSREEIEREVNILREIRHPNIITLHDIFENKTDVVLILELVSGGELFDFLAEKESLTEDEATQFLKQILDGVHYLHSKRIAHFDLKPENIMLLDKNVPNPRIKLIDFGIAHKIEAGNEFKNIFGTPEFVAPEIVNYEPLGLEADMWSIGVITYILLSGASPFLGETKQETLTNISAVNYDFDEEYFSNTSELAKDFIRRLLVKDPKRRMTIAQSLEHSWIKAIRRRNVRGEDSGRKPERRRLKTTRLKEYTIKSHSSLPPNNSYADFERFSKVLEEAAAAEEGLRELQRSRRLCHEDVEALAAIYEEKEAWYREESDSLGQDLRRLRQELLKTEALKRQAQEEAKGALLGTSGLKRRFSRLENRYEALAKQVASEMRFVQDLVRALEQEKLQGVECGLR
How it was run: (§1)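 Selectivity panel of 380 human recombinant protein kinases, screened by Eurofins at a range of concentrations.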

[2] = target: T2, 380 human recombinant protein kinases (Homo sapiens, UniProt O94804); details: LOK(h), read-out: Inhibition rate
T2 construct: purchased Eurofins (Celle Lévescault)
T2 sequence (O94804 whole entry): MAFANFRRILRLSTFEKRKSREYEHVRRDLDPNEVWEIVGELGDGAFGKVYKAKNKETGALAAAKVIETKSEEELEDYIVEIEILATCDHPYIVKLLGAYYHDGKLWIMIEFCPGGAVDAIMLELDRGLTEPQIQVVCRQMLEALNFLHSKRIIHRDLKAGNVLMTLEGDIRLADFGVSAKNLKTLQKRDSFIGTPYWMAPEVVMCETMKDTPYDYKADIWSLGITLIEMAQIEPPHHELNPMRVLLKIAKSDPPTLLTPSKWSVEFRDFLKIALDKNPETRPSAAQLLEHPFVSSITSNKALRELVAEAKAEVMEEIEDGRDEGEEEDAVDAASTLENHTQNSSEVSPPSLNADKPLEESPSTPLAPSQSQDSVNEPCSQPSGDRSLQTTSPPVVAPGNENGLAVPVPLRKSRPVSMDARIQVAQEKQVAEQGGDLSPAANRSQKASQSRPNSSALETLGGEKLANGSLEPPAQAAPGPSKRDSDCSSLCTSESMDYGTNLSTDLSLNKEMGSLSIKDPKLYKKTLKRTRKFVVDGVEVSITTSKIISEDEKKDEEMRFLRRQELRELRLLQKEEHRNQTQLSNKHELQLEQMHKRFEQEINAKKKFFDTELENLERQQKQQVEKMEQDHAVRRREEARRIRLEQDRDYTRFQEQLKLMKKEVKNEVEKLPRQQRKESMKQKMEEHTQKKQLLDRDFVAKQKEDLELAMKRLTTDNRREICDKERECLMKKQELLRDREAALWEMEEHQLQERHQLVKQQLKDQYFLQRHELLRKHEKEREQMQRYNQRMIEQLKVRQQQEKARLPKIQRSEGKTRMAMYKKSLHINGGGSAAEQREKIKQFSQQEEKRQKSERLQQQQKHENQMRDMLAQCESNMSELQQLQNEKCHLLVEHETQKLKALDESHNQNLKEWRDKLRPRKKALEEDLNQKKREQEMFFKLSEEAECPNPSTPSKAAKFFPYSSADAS
How it was run: as §1

[3] = target: T3, 380 human recombinant protein kinases (Homo sapiens, UniProt O94806); details: PKD3(h), read-out: Inhibition rate
T3 construct: purchased Eurofins (Celle Lévescault)
T3 sequence (O94806 1-890): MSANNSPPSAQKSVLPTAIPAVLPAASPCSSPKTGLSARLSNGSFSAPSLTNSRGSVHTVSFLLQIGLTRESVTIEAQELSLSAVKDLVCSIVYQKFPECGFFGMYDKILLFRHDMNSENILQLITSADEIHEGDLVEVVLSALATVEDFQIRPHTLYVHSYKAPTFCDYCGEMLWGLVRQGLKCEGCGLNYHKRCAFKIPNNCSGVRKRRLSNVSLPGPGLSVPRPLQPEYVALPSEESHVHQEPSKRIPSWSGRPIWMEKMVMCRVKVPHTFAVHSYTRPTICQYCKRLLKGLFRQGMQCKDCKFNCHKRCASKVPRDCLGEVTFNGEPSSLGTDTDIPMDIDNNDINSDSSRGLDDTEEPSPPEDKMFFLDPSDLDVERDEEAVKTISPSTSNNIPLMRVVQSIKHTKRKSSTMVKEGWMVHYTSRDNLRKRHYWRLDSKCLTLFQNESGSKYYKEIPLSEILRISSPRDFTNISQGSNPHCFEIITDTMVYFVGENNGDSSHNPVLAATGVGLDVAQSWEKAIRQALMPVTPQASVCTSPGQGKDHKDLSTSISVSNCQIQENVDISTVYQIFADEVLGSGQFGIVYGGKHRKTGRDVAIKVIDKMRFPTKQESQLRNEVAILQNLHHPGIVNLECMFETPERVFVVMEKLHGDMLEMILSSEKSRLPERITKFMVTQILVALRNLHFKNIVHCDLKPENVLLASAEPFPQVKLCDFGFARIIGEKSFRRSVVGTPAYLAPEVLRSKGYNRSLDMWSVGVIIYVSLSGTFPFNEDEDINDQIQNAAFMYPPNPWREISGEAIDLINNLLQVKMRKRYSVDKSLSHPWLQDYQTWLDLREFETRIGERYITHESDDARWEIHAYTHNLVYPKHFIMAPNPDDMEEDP
How it was run: as §1

[4] = target: T4, 380 human recombinant protein kinases (Homo sapiens, UniProt P04629); details: TrkA(h), read-out: Inhibition rate (%)
T4 construct: purchased Eurofins (Celle Lévescault)
T4 sequence (P04629 33-796): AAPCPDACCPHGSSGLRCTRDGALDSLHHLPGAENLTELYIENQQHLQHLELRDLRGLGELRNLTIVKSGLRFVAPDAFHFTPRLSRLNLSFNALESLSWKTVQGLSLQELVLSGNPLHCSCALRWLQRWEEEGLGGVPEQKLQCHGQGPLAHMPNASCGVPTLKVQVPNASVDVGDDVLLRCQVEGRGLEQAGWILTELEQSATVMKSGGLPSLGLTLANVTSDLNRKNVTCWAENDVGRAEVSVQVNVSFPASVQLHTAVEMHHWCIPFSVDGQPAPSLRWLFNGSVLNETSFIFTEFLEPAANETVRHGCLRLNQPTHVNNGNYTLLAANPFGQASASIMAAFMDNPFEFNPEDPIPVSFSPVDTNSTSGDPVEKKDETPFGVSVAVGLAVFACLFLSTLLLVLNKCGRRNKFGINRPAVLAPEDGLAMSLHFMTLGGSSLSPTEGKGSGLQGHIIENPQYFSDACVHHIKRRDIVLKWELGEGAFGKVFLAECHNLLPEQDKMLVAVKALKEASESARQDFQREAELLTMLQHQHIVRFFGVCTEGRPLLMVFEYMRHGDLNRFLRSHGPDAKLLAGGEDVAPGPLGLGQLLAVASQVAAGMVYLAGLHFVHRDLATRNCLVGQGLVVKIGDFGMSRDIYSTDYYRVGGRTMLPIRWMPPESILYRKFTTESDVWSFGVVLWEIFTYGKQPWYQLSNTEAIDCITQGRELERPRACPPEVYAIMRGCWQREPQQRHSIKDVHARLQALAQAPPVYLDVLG
How it was run: as §1

[5] = target: T5, 380 human recombinant protein kinases (Homo sapiens, UniProt P22607); details: FGFR3(h), read-out: Inhibition rate
T5 construct: purchased Eurofins (Celle Lévescault)
T5 sequence (P22607 23-806): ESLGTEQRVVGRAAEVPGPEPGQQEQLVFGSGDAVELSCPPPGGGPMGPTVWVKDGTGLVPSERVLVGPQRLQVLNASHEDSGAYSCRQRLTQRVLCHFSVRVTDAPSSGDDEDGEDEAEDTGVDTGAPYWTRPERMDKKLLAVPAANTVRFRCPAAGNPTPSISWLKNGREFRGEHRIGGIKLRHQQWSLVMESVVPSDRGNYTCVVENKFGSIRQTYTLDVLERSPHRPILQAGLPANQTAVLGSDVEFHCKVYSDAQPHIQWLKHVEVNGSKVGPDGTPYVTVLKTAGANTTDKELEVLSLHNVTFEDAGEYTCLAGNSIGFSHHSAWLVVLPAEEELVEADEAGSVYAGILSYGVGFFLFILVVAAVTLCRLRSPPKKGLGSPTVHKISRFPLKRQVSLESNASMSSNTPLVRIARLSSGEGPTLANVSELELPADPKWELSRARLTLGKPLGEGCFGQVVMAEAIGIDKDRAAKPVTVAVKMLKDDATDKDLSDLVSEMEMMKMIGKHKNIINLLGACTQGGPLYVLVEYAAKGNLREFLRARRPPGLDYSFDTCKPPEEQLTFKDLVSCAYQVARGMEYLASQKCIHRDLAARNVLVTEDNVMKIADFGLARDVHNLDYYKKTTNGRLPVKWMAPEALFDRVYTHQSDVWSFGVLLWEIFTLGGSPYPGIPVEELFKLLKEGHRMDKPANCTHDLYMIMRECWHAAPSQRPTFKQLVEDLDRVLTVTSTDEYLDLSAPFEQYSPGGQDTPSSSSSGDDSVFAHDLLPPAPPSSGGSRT
How it was run: as §1

[6] = target: T6, 380 human recombinant protein kinases (Homo sapiens, UniProt P31751); details: PKBβ(h), read-out: Inhibition rate
T6 construct: purchased Eurofins (Celle Lévescault)
T6 sequence (P31751 whole entry): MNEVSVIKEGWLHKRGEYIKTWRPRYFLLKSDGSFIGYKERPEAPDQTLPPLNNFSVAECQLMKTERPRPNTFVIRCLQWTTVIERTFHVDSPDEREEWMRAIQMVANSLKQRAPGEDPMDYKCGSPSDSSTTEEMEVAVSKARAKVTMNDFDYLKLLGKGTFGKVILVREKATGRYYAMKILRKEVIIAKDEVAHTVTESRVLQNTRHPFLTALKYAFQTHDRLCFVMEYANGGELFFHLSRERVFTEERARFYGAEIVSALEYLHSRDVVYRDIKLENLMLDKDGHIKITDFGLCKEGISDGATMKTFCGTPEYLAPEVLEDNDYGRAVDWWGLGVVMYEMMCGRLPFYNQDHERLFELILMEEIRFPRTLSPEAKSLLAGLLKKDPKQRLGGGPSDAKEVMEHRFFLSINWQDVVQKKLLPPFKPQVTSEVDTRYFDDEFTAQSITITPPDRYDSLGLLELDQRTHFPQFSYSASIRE
How it was run: as §1

[7] = target: T7, 380 human recombinant protein kinases (Homo sapiens, UniProt P78527); details: DNA-PK(h), read-out: Inhibition rate (%)
T7 construct: purchased Eurofins (Celle Lévescault)
How it was run: as §1

[8] = target: T8, 380 human recombinant protein kinases (Homo sapiens, UniProt Q00532); details: CDKL1(h), read-out: Inhibition rate
T8 construct: purchased Eurofins (Celle Lévescault)
How it was run: as §1

[9] = target: T9, 380 human recombinant protein kinases (Homo sapiens, UniProt Q6PHR2); details: ULK3(h), read-out: Inhibition rate (%)
T9 construct: purchased Eurofins (Celle Lévescault)
T9 sequence (Q6PHR2 1-472): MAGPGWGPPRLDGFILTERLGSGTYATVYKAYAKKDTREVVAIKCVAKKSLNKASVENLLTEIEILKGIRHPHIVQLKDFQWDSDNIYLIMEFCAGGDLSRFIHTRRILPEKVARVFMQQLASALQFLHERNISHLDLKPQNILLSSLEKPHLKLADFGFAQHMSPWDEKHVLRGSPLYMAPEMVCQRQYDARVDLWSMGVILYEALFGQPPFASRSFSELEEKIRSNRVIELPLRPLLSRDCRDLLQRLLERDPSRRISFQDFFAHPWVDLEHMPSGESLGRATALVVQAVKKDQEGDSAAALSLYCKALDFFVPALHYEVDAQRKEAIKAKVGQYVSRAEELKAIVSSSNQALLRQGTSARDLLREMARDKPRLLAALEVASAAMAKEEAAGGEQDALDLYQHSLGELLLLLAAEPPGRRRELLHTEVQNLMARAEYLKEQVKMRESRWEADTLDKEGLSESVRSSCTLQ
How it was run: as §1

[10] = target: T10, 380 human recombinant protein kinases (Homo sapiens, UniProt Q9P0L2); details: MARK1(h), read-out: Inhibition rate
T10 construct: purchased Eurofins (Celle Lévescault)
T10 sequence (Q9P0L2 whole entry): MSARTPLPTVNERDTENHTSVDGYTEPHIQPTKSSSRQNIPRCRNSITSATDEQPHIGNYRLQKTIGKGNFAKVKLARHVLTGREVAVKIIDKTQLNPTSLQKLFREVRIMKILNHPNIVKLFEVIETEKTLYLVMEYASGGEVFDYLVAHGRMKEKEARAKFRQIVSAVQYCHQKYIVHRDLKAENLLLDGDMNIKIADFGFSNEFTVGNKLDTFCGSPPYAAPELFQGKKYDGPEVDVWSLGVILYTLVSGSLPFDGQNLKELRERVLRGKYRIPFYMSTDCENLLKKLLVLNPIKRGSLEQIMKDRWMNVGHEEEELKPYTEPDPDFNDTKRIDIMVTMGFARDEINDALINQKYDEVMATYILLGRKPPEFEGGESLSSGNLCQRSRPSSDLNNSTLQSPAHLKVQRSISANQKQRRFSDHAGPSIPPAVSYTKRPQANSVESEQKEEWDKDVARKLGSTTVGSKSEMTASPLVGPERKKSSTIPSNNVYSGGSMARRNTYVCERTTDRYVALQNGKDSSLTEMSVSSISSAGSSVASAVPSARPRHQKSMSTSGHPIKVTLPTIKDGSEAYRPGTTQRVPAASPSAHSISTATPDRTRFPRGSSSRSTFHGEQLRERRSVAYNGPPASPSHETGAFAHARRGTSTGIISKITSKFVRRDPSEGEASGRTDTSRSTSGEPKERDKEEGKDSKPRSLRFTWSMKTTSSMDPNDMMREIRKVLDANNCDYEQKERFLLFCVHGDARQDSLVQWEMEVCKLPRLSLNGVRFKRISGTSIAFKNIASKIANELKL
How it was run: as §1

[11] = target: T11, 380 human recombinant protein kinases (Homo sapiens, UniProt Q9P286); details: PAK5(h), read-out: Inhibition rate
T11 construct: purchased Eurofins (Celle Lévescault)
T11 sequence (Q9P286 whole entry): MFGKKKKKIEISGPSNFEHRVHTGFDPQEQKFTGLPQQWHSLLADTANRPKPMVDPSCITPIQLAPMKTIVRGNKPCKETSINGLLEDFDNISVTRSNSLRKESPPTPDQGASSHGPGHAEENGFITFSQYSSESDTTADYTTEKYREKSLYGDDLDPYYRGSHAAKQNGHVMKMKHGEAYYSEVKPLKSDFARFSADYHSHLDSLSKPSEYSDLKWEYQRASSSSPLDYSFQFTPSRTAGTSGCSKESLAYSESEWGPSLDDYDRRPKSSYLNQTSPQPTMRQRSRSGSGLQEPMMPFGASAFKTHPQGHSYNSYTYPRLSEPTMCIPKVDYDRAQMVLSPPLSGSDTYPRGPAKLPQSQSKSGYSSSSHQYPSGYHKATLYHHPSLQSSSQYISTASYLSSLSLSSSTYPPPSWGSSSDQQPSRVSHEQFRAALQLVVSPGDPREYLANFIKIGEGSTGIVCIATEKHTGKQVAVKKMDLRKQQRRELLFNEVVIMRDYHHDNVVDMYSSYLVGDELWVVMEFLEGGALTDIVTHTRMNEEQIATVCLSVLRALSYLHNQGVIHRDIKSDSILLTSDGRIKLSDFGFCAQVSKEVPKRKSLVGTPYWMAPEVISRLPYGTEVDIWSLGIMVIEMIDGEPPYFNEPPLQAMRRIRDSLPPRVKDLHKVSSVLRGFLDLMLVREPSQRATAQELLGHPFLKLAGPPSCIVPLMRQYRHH
How it was run: as §1

C=CC(=O)Nc1cc(-c2cc(-c3cc4c([nH]3)CCNC4=O)ccn2)ccc1OC(F)(F)F [compound 11]
inhibition at 0.01 µM ([1]; 10 nM): 4%
inhibition at 0.1 µM ([1]; 100 nM): 8%
inhibition at 1 µM ([1]; 1000 nM): 15%
inhibition at 0.01 µM ([2]; 10 nM): -2%
inhibition at 0.1 µM ([2]; 100 nM): 6%
inhibition at 1 µM ([2]; 1000 nM): 54%
inhibition at 0.01 µM ([3]; 10 nM): 4%
inhibition at 0.1 µM ([3]; 100 nM): 15%
inhibition at 1 µM ([3]; 1000 nM): 55%
inhibition at 0.01 µM ([4]; 10 nM): -6%
inhibition at 0.1 µM ([4]; 100 nM): -1%
inhibition at 1 µM ([4]; 1000 nM): 15%
inhibition at 0.01 µM ([5]; 10 nM): 2%
inhibition at 0.1 µM ([5]; 100 nM): 9%
inhibition at 1 µM ([5]; 1000 nM): 0%
inhibition at 0.01 µM ([6]; 10 nM): 1%
inhibition at 0.1 µM ([6]; 100 nM): 3%
inhibition at 1 µM ([6]; 1000 nM): 0%
inhibition at 0.01 µM ([7]; 10 nM): -1%
inhibition at 0.1 µM ([7]; 100 nM): 2%
inhibition at 1 µM ([7]; 1000 nM): 3%
inhibition at 0.01 µM ([8]; 10 nM): 26%
inhibition at 0.1 µM ([8]; 100 nM): 47%
inhibition at 1 µM ([8]; 1000 nM): 49%
inhibition at 0.01 µM ([9]; 10 nM): 8%
inhibition at 0.1 µM ([9]; 100 nM): 3%
inhibition at 1 µM ([9]; 1000 nM): -4%
inhibition at 0.01 µM ([10]; 10 nM): -1%
inhibition at 0.1 µM ([10]; 100 nM): -12%
inhibition at 1 µM ([10]; 1000 nM): -4%
inhibition at 0.01 µM ([11]; 10 nM): -2%
inhibition at 0.1 µM ([11]; 100 nM): -2%
inhibition at 1 µM ([11]; 1000 nM): -2%
